# Measured values published in paper PMC12040169 (PLOS Biology, 2025).
# Experiment: in vitro
# Settings: human, hela cells
row,SMILES,"viability at 28.5 h, 10 µM [%]"
1,COc1ccc(C(=O)Oc2ccc(C(c3c(C)n[nH]c3O)c3c(C)n[nH]c3O)cc2)cc1 [CBK264740],112

# Same assay, conditions: human, hela cells, % viability
row,SMILES,"viability at 28.5 h, 10 µM [%]"
1,Cc1cc(C)n(Cc2cccc(C(=O)NC(C)Cc3ccccn3)c2)n1 (centres unmarked) [CBK281449],102
2,Cc1cccc(C(=O)Oc2ccc(-n3ccnc3)cc2)c1 [CBK090137],101
3,CCOc1cc2c(cc1OCC)C(c1ccc(OC)c(O)c1)NCC2 (centres unmarked) [CBK074443C],88.7
4,CNC(=O)N(O)C1N(NC(=O)Nc2ccccc2)C(=S)SC1(C)C (centres unmarked) [CBK261005],94.9
5,CCOCCCNC(=O)c1cccc(S(=O)(=O)N2CCCC2)c1 [CBK305934],104
6,OC1(c2ccc(F)cc2)CC2CCC(C1)N2CC1=CCCOC1 (centres unmarked) [CBK282942],106
7,O=C(COc1ccc(Cl)cc1Br)NNC(=O)c1ccc(O)cc1 [CBK262950],95.5
8,COc1cc([N+](=O)[O-])ccc1NC(=S)Nc1cccc(S(=O)(=O)N2CCOCC2)c1 [CBK267042],96.9
9,Cc1nn(Cc2c(F)cccc2Cl)c(C)c1NC(=O)CCCC(=O)O [CBK286838],108
10,O=C1CCC[C@]2(CN(C(=O)C3CC3)C[C@H]2c2ccc(F)c(F)c2)N1 [CBK283364],111
11,Cc1cnn(CCC(=O)NC(Cc2ccsc2)c2nccs2)c1 (centres unmarked) [CBK284664],88.4
12,C=CCNC(=O)c1ccccc1NC(=O)Cc1ccc(Cl)cc1 [CBK270086],101
13,Cc1cc(COc2nccc(C(F)(F)F)n2)no1 [CBK115800],88.7
14,O=C1/C(=C/c2c(NCCCn3ccnc3)nc3ccccn3c2=O)SC(=S)N1C1CCCCC1 [CBK264696],95.2
15,Cc1cc(C)c2c(N)nc(N)nc2n1 [CBK025968],105
16,Cc1ccc(-c2nnc3sc(-c4cnccn4)nn23)cc1 [CBK268258],98.9
17,CCN1CCCc2cc(-c3cncn3CCCn3ccnc3C)ccc21 [CBK281810],109
18,O=[N+]([O-])c1ccc(Cc2cc[n+](-c3nc4ccccc4nc3[N-]S(=O)(=O)c3ccc([N+](=O)[O-])cc3)cc2)cc1 [CBK301201],84.3
19,CS(=O)(=O)NCC1CCCN(C(=O)Nc2cccc(Cl)c2)C1 (centres unmarked) [CBK305736],79.5
20,Clc1cnc2nc(NCC3CCCCC3)sc2c1 [CBK067087],87.5
21,O=C(Nc1ccc(F)cc1)c1sccc1NS(=O)(=O)Cc1ccccc1 [CBK004574],106
22,Cc1csc(CNCc2c(C(C)C)nn(C)c2N(C)C)n1 [CBK305089],83.7

row,SMILES,"viability at 28.5 h, 10 µM [%]"
1,O=C1CCC[C@]2(CN(Cc3ccccc3)C[C@H]2c2cccnc2)N1 [CBK283349],96.1
2,Cc1ccc(C2(C(=O)NCCn3ccnc3C)CCOCC2)cc1 [CBK281858],95
3,CSc1ccc(CNC(=O)c2sc3nc(C)nc(N4CCCC4)c3c2C)cc1 [CBK294432],96.8
4,Cn1c(=O)oc2ccc(C(=O)CSc3nnnn3-c3ccccc3)cc21 [CBK300488],90.1
5,O=C(c1cnoc1-c1ccc([N+](=O)[O-])cc1)N1CCCC1 [CBK153846],107
6,C1=C(CNC(Cc2cccs2)c2nccs2)COCC1 (centres unmarked) [CBK284682],103
7,CC(C)(C)OC(=O)N1CCN(S(=O)(=O)c2ccc(Cl)c([N+](=O)[O-])c2)CC1 [CBK003165],100
8,CCCn1cnnc1CN(C)C(=O)NCCc1nc2ccccc2s1 [CBK307663],98.2
9,c1ccc2c(c1)CCCN2CCc1c[nH]c2ccccc12 [CBK138330],97.3
10,CC12CCC(C(=O)O)(c3nc4c(ccc5ncccc54)nc31)C2(C)C (centres unmarked) [CBK269470],91.1
11,Cc1ccc(S(=O)(=O)N2CCN(c3ccc([N+](=O)[O-])c(NCCN4CCOCC4)c3)CC2)cc1 [CBK265432],102
12,CO[C@@]12CC[C@@H](OCC(=O)O)C[C@@H]1N(Cc1ccccc1C)CC2 [CBK307548],104
13,CSc1nccc(OCCOc2nccnc2N2CCNCC2)n1 [CBK000718G],104
14,O=c1[nH]c2ncc(-c3cccc4ncccc34)nc2n1CCCO [CBK065060],104
15,Cn1c(C2CC2)nc2c1CCN(Cc1cc(=O)n(C)c(=O)n1C)C2 [CBK304025],115
16,c1cn2cnnc2c(N2CCc3sccc3C2)n1 [CBK305180],96.6
17,c1ccc(OCCNc2nccnc2N2CCNCC2)cc1 [CBK013527],93.3
18,Cc1cccc(C2(Cn3cncc3-c3cnn(C)c3)CCOCC2)c1 [CBK281765],79
19,Cc1ccc(O)c(NC(=O)c2nc3nc(C)cc(C(F)F)n3n2)c1 [CBK266186],99.6
20,Cc1cc(C)cc(CNC(=O)NCCc2cccs2)c1 [CBK043459],103
21,N#CCc1c(-c2ccc(Br)cc2)nc2ccccn12 [CBK172896],100
22,O=C1/C(=C/c2c(NCCc3ccccc3)nc3ccccn3c2=O)SC(=S)N1Cc1ccco1 [CBK264674],96.4

row,SMILES,"viability at 28.5 h, 10 µM [%]"
1,CCCN1C[C@@H](O)C[C@H]2[C@H](O)[C@@H]1c1ccccc1N2C(=O)OC [CBK007809],91.8
2,Clc1ccc(COc2nccnc2OC2CCN(CCOc3ccccc3)CC2)cc1Cl [CBK083121T],95.9
3,COC(=O)c1cccc(CN2CCC3(CC2)NC(=O)Cc2ccccc23)c1 [CBK039807],101
4,COCCc1ccccc1NC1CCN(c2nccs2)CC1 [CBK305476],91.2
5,CC1CCN(C(=O)c2cccc(Cn3cc(Br)cn3)c2)CC1 [CBK058482],91.8
6,CC(C)NCc1c(O)c(Br)cc2oc3c(c12)CCCC3 [CBK160400],96.5
7,COc1ccc(OCc2nc(-c3cccs3)no2)cc1 [CBK269782],91.7
8,Cn1cnc2cc(-c3nnn[nH]3)ccc21 [CBK306265],90.2
9,Cc1ccc(S(=O)(=O)Nc2c(C(=O)O)[nH]c3ccccc23)cc1 [CBK049880],72.6
10,Nc1c(C(F)(F)F)cc(Cl)nc1Cl [CBK005620],95.7
11,Cc1cc2nc(C(=O)NCCCn3ccnc3C(C)C)cc(C)n2n1 [CBK307022],90.5
12,Cc1nn(CC(=O)NC(C)(C)C)c(=O)c2cc3sccc3n12 [CBK284021],80.9
13,Fc1ccc(C2CCCN(CCCOc3cccc(F)c3)C2)cc1 (centres unmarked) [CBK016228B],102
14,O=c1ccc(-c2ccccc2)nn1CC1CCNCC1 [CBK284203],98.6
15,COc1ccc(CCOc2nccnc2-c2ccc(OC(F)(F)F)cc2)cc1 [CBK106846],109
16,Cc1ccc(S(=O)(=O)Nc2ccc(C(=O)Nc3ccc(S(=O)(=O)N4CCCCC4)cc3)cc2)cc1 [CBK269000],101
17,Cc1cccc(NC(=O)CC(C(=O)O)N2CCOCC2)c1 (centres unmarked) [CBK266925],96.3
18,CCn1ncc(CN2CCCCCC2c2cc(C)no2)c1C (centres unmarked) [CBK283008],92.9
19,Cc1nc(C)c(C(=O)Nc2ccc3c(c2)CN(Cc2ccccc2)C3)o1 [CBK281835],91.2
20,Cc1cccc(Nc2[nH]c3cc(C)ccc3c2[N+](=O)[O-])c1 [CBK266303],81.9
21,Cc1cc2c(cc1C)C(O)CC1(CCN(C(=O)C3CCCC3)CC1)O2 (centres unmarked) [CBK282743],81.5
22,Cc1cc(O)cc(O)c1/C=N\NC(=O)C1COc2cc3ccccc3cc2O1 (centres unmarked) [CBK262809],80.4

row,SMILES,"viability at 28.5 h, 10 µM [%]"
1,CN1CCN(c2cc(N3CCN(S(=O)(=O)c4ccc5ccccc5c4)CC3)ccc2[N+](=O)[O-])CC1 [CBK264791],97.6
2,O=C(OCc1ccccc1F)c1cccc(-c2nnc(-c3ccccc3)o2)c1 [CBK267798],84.6
3,COc1ccc(OC)c(S(=O)(=O)N2CCN(C(=O)c3cc(-c4ccncc4)nc4c(C)cc(C)cc34)CC2)c1 [CBK267778],103
4,Cc1nccn1CCC1CCN(C(=O)CC2CCCCO2)CC1 (centres unmarked) [CBK281974],84.3
5,Cc1nn(CCNC(=O)C2CC(=O)N(Cc3ccccn3)C2)c(C)c1Cl (centres unmarked) [CBK307316],85.1
6,CCOc1cc(OCC)cc(C(=O)N2CCCC3(CC2)CC(=O)c2ccc(C)cc2O3)c1 (centres unmarked) [CBK168241],98.2
7,Cc1cc(NC(=O)c2cccc(N3C(=O)CCC3=O)c2)no1 [CBK287352],112
8,CCCNc1nccnc1-c1ccc(C(=O)N2CCN(C)CC2)cc1 [CBK036892],110
9,O=C(c1cccs1)[C@H]1CCCN(C(=O)c2cc(C3CC3)n[nH]2)C1 [CBK282411],85.3
10,Cc1cc(C)[n+]2c(n1)N(c1ccccc1)CC2 [CBK017327G],80.7
11,COC(=O)CCn1c(-c2cccnc2C)cc2cccnc21 [CBK282593],105
12,CCn1cc(Br)c(C(=O)Nc2nccs2)n1 [CBK265890],96.8
13,Cc1nc(C(Cc2ccsc2)NC(=O)C2CCC(=O)N2)sc1C (centres unmarked) [CBK284780],101
14,CCCn1c(SCC(=O)N2CCOCC2)nc2ccc(Br)cc2c1=O [CBK305929],83
15,Clc1cncc(N2CCCC2)n1 [CBK083595],118
16,c1ccc(CN2CCN(c3nccnc3OCCN3CCOCC3)CC2)cc1 [CBK082885T],104
17,Cc1cc(C)c(OCC(=O)Nc2ccc3oc(-c4cncc(Br)c4)nc3c2)c(Cl)c1 [CBK266634],100
18,CC(C(=O)NCCC1=CCCCC1)N1CCOC(Cn2cccn2)C1 (centres unmarked) [CBK305319],101
19,CC(=O)Nc1ccc2nc(NC(=O)c3ccc(C)cc3)sc2c1 [CBK287304],103
20,C=CCN1CC2(c3ccccc3)CN(CC=C)CC(c3ccccc3)(C1)C2=O [CBK265987],86.3

# Same assay, conditions: human, hela cells, % viability, bulk resorufin, single well
row,SMILES,"viability at 28.5 h, 10 µM [%]"
1,COc1cc(C(=O)Nc2ccc3c(c2)COC2(CCN(C(=O)OC(C)(C)C)CC2)O3)cc(OC)c1OC [CBK091527],85.9
2,CCN1C(=O)/C(=C\c2ccc(-c3cccc(C(=O)O)c3C)o2)C(=O)N(c2ccc(Cl)cc2)C1=S [CBK265270],99.9
